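How tested: cells in 96-well plates exposed to compound for 48 hours at five concentrations. TGI is the concentration that stops growth completely.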
System: 786-0 renal
Experiment: DTP human tumour cell line panel, 48 h

| SMILES | TGI |
| --- | --- |
| COc1cccc2c1OC(c1ccc(Cl)cc1)C([N+](=O)[O-])=C2 (stereo not drawn) | 3.63 µM |
| CCCCCCCCCC1(N=[N+]=[N-])C(=O)c2ccccc2N(C)C1=O (stereo not drawn) | > 100 µM |
| C[N+](CCCl)(CCCl)Cc1cccc2cccc([N+](=O)[O-])c12 | > 100 µM |
| O=C1NC(=O)C(c2c[nH]c3ccccc23)=C1c1cnc[nH]1 | > 100 µM |
| CC(=O)O[C@H]1C[C@H]2[C@@H](OC(C)=O)/C=C3\C[C@](C)(C(=O)[C@H](O)C(=C1C)C2(C)C)[C@@H](O)C[C@@H]3OC(=O)[C@H](O)[C@H](c1ccccc1)N(C)C | > 100 µM |
| Nc1ncnc2c1ccn2C/C=C\CO | > 100 µM |
| Cc1c([N+](=O)[O-])ccc2c(NCCCN(C)C)ccnc12 | 89.3 µM |
| OCCCCCCCCCCCOc1ccc(C2OCC3(CO2)COC(c2ccc(OCCCCCCCCCCCO)cc2)OC3)cc1 (stereo not drawn) | > 50 µM |
| CC(=O)c1cccc(NC(=O)C(=O)NNc2n[nH]c(=S)n2N)c1 | 25.5 µM |
| COC(=O)c1ccc(C(=O)NC(Cc2ccc(Oc3cc(CC(NC(=O)c4ccccc4C(=O)OC)C(=O)OC)ccc3OC)cc2)C(=O)OC)cc1 (stereo not drawn) | > 100 µM |
| O=c1cc(N2CCOCC2)[nH]c(=O)n1-c1ccc(F)cc1 | > 100 µM |
| O=C(O)CC1NC(/C(=C/c2ccccc2)NC(=O)c2ccccc2)OC1=O (stereo not drawn) | > 100 µM |
| CNC(C#N)c1ccc(OC)cc1 (stereo not drawn) | > 100 µM |
| CC(C)(Br)C(Br)CCC1(C2CO2)CO1 (stereo not drawn) | > 5 µM |
| CCOC(=O)c1c(-c2ccc(OC)cc2)c(C#N)c(=S)n(C2OC(COC(C)=O)C(OC(C)=O)C(OC(C)=O)C2OC(C)=O)c1-c1ccccc1 (stereo not drawn) | > 100 µM |
| CC1(c2cccs2)CC(c2cccs2)=C(C#N)C(=C(C#N)C#N)N1 (stereo not drawn) | 35 µM |
| CCCCc1c(N(C)C)c(OC(C)=O)c(-c2cn(C)c3ccccc23)oc1=O | > 100 µM |
| CCCC(=O)n1[nH]c(=O)n(-c2ccc(Cl)cc2)c1=O | > 100 µM |
| CC(C)(C)[Si](C)(C)OCC1OC(n2ccc(N)nc2=O)C(O[Si](C)(C)C(C)(C)C)C1O[Si](C)(C)C(C)(C)C (stereo not drawn) | 3.01 µM |
| O=C(O)c1ccc(N=C(C(=Nc2ccc(C(=O)O)cc2)c2ccccc2)c2ccccc2)cc1 | > 100 µM |

System: CAKI-1 renal
Experiment: DTP human tumour cell line panel, 48 h

| SMILES | TGI |
| --- | --- |
| COc1cccc2c1OC(c1ccc(Cl)cc1)C([N+](=O)[O-])=C2 (stereo not drawn) | 10.7 µM |
| CCCCCCCCCC1(N=[N+]=[N-])C(=O)c2ccccc2N(C)C1=O (stereo not drawn) | > 100 µM |
| C[N+](CCCl)(CCCl)Cc1cccc2cccc([N+](=O)[O-])c12 | > 100 µM |
| O=C1NC(=O)C(c2c[nH]c3ccccc23)=C1c1cnc[nH]1 | > 100 µM |
| CC(=O)O[C@H]1C[C@H]2[C@@H](OC(C)=O)/C=C3\C[C@](C)(C(=O)[C@H](O)C(=C1C)C2(C)C)[C@@H](O)C[C@@H]3OC(=O)[C@H](O)[C@H](c1ccccc1)N(C)C | > 100 µM |
| Nc1ncnc2c1ccn2C/C=C\CO | > 100 µM |
| Cc1c([N+](=O)[O-])ccc2c(NCCCN(C)C)ccnc12 | > 100 µM |
| OCCCCCCCCCCCOc1ccc(C2OCC3(CO2)COC(c2ccc(OCCCCCCCCCCCO)cc2)OC3)cc1 (stereo not drawn) | > 50 µM |
| CC(=O)c1cccc(NC(=O)C(=O)NNc2n[nH]c(=S)n2N)c1 | 34.4 µM |
| COC(=O)c1ccc(C(=O)NC(Cc2ccc(Oc3cc(CC(NC(=O)c4ccccc4C(=O)OC)C(=O)OC)ccc3OC)cc2)C(=O)OC)cc1 (stereo not drawn) | > 100 µM |
| O=c1cc(N2CCOCC2)[nH]c(=O)n1-c1ccc(F)cc1 | > 100 µM |
| O=C(O)CC1NC(/C(=C/c2ccccc2)NC(=O)c2ccccc2)OC1=O (stereo not drawn) | > 100 µM |
| CNC(C#N)c1ccc(OC)cc1 (stereo not drawn) | > 100 µM |
| CC(C)(Br)C(Br)CCC1(C2CO2)CO1 (stereo not drawn) | > 5 µM |
| CCOC(=O)c1c(-c2ccc(OC)cc2)c(C#N)c(=S)n(C2OC(COC(C)=O)C(OC(C)=O)C(OC(C)=O)C2OC(C)=O)c1-c1ccccc1 (stereo not drawn) | > 100 µM |
| CC1(c2cccs2)CC(c2cccs2)=C(C#N)C(=C(C#N)C#N)N1 (stereo not drawn) | 37 µM |
| CCCCc1c(N(C)C)c(OC(C)=O)c(-c2cn(C)c3ccccc23)oc1=O | > 100 µM |
| CCCC(=O)n1[nH]c(=O)n(-c2ccc(Cl)cc2)c1=O | > 100 µM |

System: EKVX NSCLC
Experiment: DTP human tumour cell line panel, 48 h

| SMILES | TGI |
| --- | --- |
| COc1cccc2c1OC(c1ccc(Cl)cc1)C([N+](=O)[O-])=C2 (stereo not drawn) | 24.2 µM |
| C[N+](CCCl)(CCCl)Cc1cccc2cccc([N+](=O)[O-])c12 | > 100 µM |
| O=C1NC(=O)C(c2c[nH]c3ccccc23)=C1c1cnc[nH]1 | > 100 µM |
| CC(=O)O[C@H]1C[C@H]2[C@@H](OC(C)=O)/C=C3\C[C@](C)(C(=O)[C@H](O)C(=C1C)C2(C)C)[C@@H](O)C[C@@H]3OC(=O)[C@H](O)[C@H](c1ccccc1)N(C)C | > 100 µM |
| Nc1ncnc2c1ccn2C/C=C\CO | > 100 µM |
| OCCCCCCCCCCCOc1ccc(C2OCC3(CO2)COC(c2ccc(OCCCCCCCCCCCO)cc2)OC3)cc1 (stereo not drawn) | > 50 µM |
| CC(=O)c1cccc(NC(=O)C(=O)NNc2n[nH]c(=S)n2N)c1 | 29 µM |
| COC(=O)c1ccc(C(=O)NC(Cc2ccc(Oc3cc(CC(NC(=O)c4ccccc4C(=O)OC)C(=O)OC)ccc3OC)cc2)C(=O)OC)cc1 (stereo not drawn) | > 100 µM |
| O=c1cc(N2CCOCC2)[nH]c(=O)n1-c1ccc(F)cc1 | > 100 µM |
| O=C(O)CC1NC(/C(=C/c2ccccc2)NC(=O)c2ccccc2)OC1=O (stereo not drawn) | > 100 µM |
| CNC(C#N)c1ccc(OC)cc1 (stereo not drawn) | > 100 µM |
| CC(C)(Br)C(Br)CCC1(C2CO2)CO1 (stereo not drawn) | > 5 µM |
| CC1(c2cccs2)CC(c2cccs2)=C(C#N)C(=C(C#N)C#N)N1 (stereo not drawn) | 33.6 µM |
| CCCCc1c(N(C)C)c(OC(C)=O)c(-c2cn(C)c3ccccc23)oc1=O | > 100 µM |
| CCCC(=O)n1[nH]c(=O)n(-c2ccc(Cl)cc2)c1=O | > 100 µM |
| CC(C)(C)[Si](C)(C)OCC1OC(n2ccc(N)nc2=O)C(O[Si](C)(C)C(C)(C)C)C1O[Si](C)(C)C(C)(C)C (stereo not drawn) | 9.83 µM |
| O=C(O)c1ccc(N=C(C(=Nc2ccc(C(=O)O)cc2)c2ccccc2)c2ccccc2)cc1 | > 100 µM |

System: HCC-2998 colon
Experiment: DTP human tumour cell line panel, 48 h

| SMILES | TGI |
| --- | --- |
| CCCCCCCCCC1(N=[N+]=[N-])C(=O)c2ccccc2N(C)C1=O (stereo not drawn) | 96.2 µM |
| Nc1ncnc2c1ccn2C/C=C\CO | > 100 µM |
| OCCCCCCCCCCCOc1ccc(C2OCC3(CO2)COC(c2ccc(OCCCCCCCCCCCO)cc2)OC3)cc1 (stereo not drawn) | > 50 µM |
| CC(=O)c1cccc(NC(=O)C(=O)NNc2n[nH]c(=S)n2N)c1 | 27.5 µM |
| COC(=O)c1ccc(C(=O)NC(Cc2ccc(Oc3cc(CC(NC(=O)c4ccccc4C(=O)OC)C(=O)OC)ccc3OC)cc2)C(=O)OC)cc1 (stereo not drawn) | > 100 µM |
| O=c1cc(N2CCOCC2)[nH]c(=O)n1-c1ccc(F)cc1 | > 100 µM |
| O=C(O)CC1NC(/C(=C/c2ccccc2)NC(=O)c2ccccc2)OC1=O (stereo not drawn) | > 100 µM |
| CNC(C#N)c1ccc(OC)cc1 (stereo not drawn) | > 100 µM |
| CC(C)(Br)C(Br)CCC1(C2CO2)CO1 (stereo not drawn) | > 5 µM |
| CCOC(=O)c1c(-c2ccc(OC)cc2)c(C#N)c(=S)n(C2OC(COC(C)=O)C(OC(C)=O)C(OC(C)=O)C2OC(C)=O)c1-c1ccccc1 (stereo not drawn) | > 100 µM |
| CC1(c2cccs2)CC(c2cccs2)=C(C#N)C(=C(C#N)C#N)N1 (stereo not drawn) | 31.1 µM |
| CCCC(=O)n1[nH]c(=O)n(-c2ccc(Cl)cc2)c1=O | > 100 µM |
| O=C(O)c1ccc(N=C(C(=Nc2ccc(C(=O)O)cc2)c2ccccc2)c2ccccc2)cc1 | > 100 µM |

System: HCT-116 colon
Experiment: DTP human tumour cell line panel, 48 h

| SMILES | TGI |
| --- | --- |
| COc1cccc2c1OC(c1ccc(Cl)cc1)C([N+](=O)[O-])=C2 (stereo not drawn) | 2.67 µM |
| CCCCCCCCCC1(N=[N+]=[N-])C(=O)c2ccccc2N(C)C1=O (stereo not drawn) | 75.2 µM |
| C[N+](CCCl)(CCCl)Cc1cccc2cccc([N+](=O)[O-])c12 | > 100 µM |
| O=C1NC(=O)C(c2c[nH]c3ccccc23)=C1c1cnc[nH]1 | > 100 µM |
| CC(=O)O[C@H]1C[C@H]2[C@@H](OC(C)=O)/C=C3\C[C@](C)(C(=O)[C@H](O)C(=C1C)C2(C)C)[C@@H](O)C[C@@H]3OC(=O)[C@H](O)[C@H](c1ccccc1)N(C)C | > 100 µM |
| Nc1ncnc2c1ccn2C/C=C\CO | > 100 µM |
| Cc1c([N+](=O)[O-])ccc2c(NCCCN(C)C)ccnc12 | 35.3 µM |
| OCCCCCCCCCCCOc1ccc(C2OCC3(CO2)COC(c2ccc(OCCCCCCCCCCCO)cc2)OC3)cc1 (stereo not drawn) | > 50 µM |
| CC(=O)c1cccc(NC(=O)C(=O)NNc2n[nH]c(=S)n2N)c1 | 12.8 µM |
| COC(=O)c1ccc(C(=O)NC(Cc2ccc(Oc3cc(CC(NC(=O)c4ccccc4C(=O)OC)C(=O)OC)ccc3OC)cc2)C(=O)OC)cc1 (stereo not drawn) | > 100 µM |
| O=c1cc(N2CCOCC2)[nH]c(=O)n1-c1ccc(F)cc1 | > 100 µM |
| O=C(O)CC1NC(/C(=C/c2ccccc2)NC(=O)c2ccccc2)OC1=O (stereo not drawn) | 42.9 µM |
| CNC(C#N)c1ccc(OC)cc1 (stereo not drawn) | > 100 µM |
| CC(C)(Br)C(Br)CCC1(C2CO2)CO1 (stereo not drawn) | > 5 µM |
| CCOC(=O)c1c(-c2ccc(OC)cc2)c(C#N)c(=S)n(C2OC(COC(C)=O)C(OC(C)=O)C(OC(C)=O)C2OC(C)=O)c1-c1ccccc1 (stereo not drawn) | > 100 µM |
| CC1(c2cccs2)CC(c2cccs2)=C(C#N)C(=C(C#N)C#N)N1 (stereo not drawn) | 31.6 µM |
| CCCCc1c(N(C)C)c(OC(C)=O)c(-c2cn(C)c3ccccc23)oc1=O | 40.9 µM |
| CCCC(=O)n1[nH]c(=O)n(-c2ccc(Cl)cc2)c1=O | > 100 µM |
| CC(C)(C)[Si](C)(C)OCC1OC(n2ccc(N)nc2=O)C(O[Si](C)(C)C(C)(C)C)C1O[Si](C)(C)C(C)(C)C (stereo not drawn) | 11.6 µM |
| O=C(O)c1ccc(N=C(C(=Nc2ccc(C(=O)O)cc2)c2ccccc2)c2ccccc2)cc1 | > 100 µM |

From PubChem BioAssay (NCI)
